According to patent US8178570B2, “Tie-2 modulators and methods of use” (Exelixis, Inc., priority 2003, dated 2012):

target: Tie-2 (Homo sapiens, UniProt Q02763); test: Tie-2 tyrosine kinase activity: kinase-dependent ATP consumption (pEY substrate, luciferase/luciferin chemiluminescence) or 33P-ATP incorporation into substrate; assay type: biochemical; conditions: Tie-2 (human enzyme) inhibition, Table 2, class symbols A-D
Method: One measure of inhibition is Ki. […] The Ki for a compound is determined from the IC50 based on three assumptions. First, only one compound molecule binds to the enzyme and there is no cooperativity. […] Third, the enzymatic rate of the enzyme-inhibitor complex is zero. The rate (i.e., compound concentration) data are fitted to the equation:
[formula] where V is the observed rate, Vmax, is the rate of the free enzyme, I0 is the inhibitor concentration, E0 is the enzyme concentration, and Kd is the dissociation constant of the enzyme-inhibitor complex.
Tyrosine kinase activity is determined by 1) measurement of kinase-dependent ATP consumption by in the presence of a generic substrate such as polyglutamine, tyrosine (pEY), by luciferase/luciferin-mediated chemiluminescence or; 2) incorporation of radioactive phosphate derived from ^33P-ATP into a generic substrate which has been absorbed onto the well surface of polystyrene microtiter plates. Phosphorylated substrate products are quantified by scintillation spectrometry.
Inhibition is indicated as IC50 with following key: A=IC50 less than 50 nM, B=IC50 greater than 50 nM, but less than or equal to 1000 nM, C=IC50 greater than 1000 nM, but less than 10,000 nM, and D=IC50 10,000 nM or greater. The abbreviation for human enzyme, Tie-2, is defined as tyrosine kinase with immunoglobulin and EGF repeats.

Chain of Tie-2 (Q02763 23-1124): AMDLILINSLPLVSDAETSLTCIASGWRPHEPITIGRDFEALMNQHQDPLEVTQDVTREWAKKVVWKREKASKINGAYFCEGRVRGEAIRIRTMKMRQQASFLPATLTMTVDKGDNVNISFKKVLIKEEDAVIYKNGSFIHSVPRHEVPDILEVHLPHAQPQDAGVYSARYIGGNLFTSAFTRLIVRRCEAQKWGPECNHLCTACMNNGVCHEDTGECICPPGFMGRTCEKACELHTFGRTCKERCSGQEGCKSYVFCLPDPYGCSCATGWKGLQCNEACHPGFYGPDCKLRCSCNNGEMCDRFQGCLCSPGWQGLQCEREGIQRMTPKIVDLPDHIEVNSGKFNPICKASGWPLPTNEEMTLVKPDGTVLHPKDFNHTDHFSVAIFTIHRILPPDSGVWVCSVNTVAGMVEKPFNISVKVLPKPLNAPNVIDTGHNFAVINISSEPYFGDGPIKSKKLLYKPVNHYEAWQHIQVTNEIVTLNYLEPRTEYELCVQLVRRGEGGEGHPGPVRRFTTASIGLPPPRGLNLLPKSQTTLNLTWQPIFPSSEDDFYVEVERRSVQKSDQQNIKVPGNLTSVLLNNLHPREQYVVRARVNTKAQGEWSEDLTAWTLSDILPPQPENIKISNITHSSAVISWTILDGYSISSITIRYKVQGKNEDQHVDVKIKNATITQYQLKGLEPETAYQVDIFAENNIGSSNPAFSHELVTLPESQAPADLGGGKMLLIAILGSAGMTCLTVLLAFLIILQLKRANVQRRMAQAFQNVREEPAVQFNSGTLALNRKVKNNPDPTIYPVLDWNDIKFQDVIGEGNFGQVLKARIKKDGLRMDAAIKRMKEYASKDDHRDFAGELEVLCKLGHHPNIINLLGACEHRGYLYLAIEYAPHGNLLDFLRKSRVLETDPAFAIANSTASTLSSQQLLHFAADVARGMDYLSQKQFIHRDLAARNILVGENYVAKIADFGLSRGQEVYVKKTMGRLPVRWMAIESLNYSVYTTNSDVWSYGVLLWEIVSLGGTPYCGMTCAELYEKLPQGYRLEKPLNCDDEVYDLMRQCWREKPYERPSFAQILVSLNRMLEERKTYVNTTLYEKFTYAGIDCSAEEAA

| SMILES | IC50 [nM] |
| --- | --- |
| COc1ccc(-c2nc(-c3ccccc3)nn2CC(=O)NC2CCCC2)cc1Cl [Entry 33, 2-{5-[3-chloro-4-(methyloxy)phenyl]-3-phenyl-1H-1,2,4-triazol-1-yl}-N-cyclopentylacetamide] | ≥ 10000 |
| COc1ccc(-c2nc(-c3ccncc3)nn2CCNC(=O)Cc2cccc3ccccc23)cc1Cl [Entry 34, N-(2-{5-[3-chloro-4-(methyloxy)phenyl]-3-pyridin-4-yl-1H-1,2,4-triazol-1-yl}ethyl)-2-naphthalen-1-ylacetamide] | 1000 to 10000 |
| COc1ccc(-c2nc(-c3ccncc3)n(CCN(C(=O)Cc3cccc4ccccc34)C(C)C)n2)cc1Cl [Entry 35, N-(2-{3-[3-chloro-4-(methyloxy)phenyl]-5-pyridin-4-yl-1H-1,2,4-triazol-1-yl}ethyl)-N-(1-methylethyl)-2-naphthalen-1-ylacetamide] | ≥ 10000 |
| COc1ccc(-c2nc(-c3ccncc3)nn2CCN(C(=O)Cc2cccc3ccccc23)C2CCCCC2)cc1Cl [Entry 36, N-(2-{5-[3-chloro-4-(methyloxy)phenyl]-3-pyridin-4-yl-1H-1,2,4-triazol-1-yl}ethyl)-N-cyclohexyl-2-naphthalen-1-ylacetamide] | < 50 |
| COc1ccc(-c2nc(-c3ccncc3)n(CCN(C(=O)Cc3cccc4ccccc34)C3CCCCC3)n2)cc1Cl [Entry 37, N-(2-{3-[3-chloro-4-(methyloxy)phenyl]-5-pyridin-4-yl-1H-1,2,4-triazol-1-yl}ethyl)-N-cyclohexyl-2-naphthalen-1-ylacetamide] | 50 to 1000 |
| COc1ccc(-c2nc(-c3ccncc3)n(CCN(C(=O)Cc3cccc4ccccc34)C3CC3)n2)cc1Cl [Entry 38, N-(2-{3-[3-chloro-4-(methyloxy)phenyl]-5-pyridin-4-yl-1H-1,2,4-triazol-1-yl}ethyl)-N-cyclopropyl-2-naphthalen-1-ylacetamide] | 50 to 1000 |
| COc1ccc(-c2nc(-c3ccncc3)nn2CCN(C(=O)Cc2cccc3ccccc23)C2CCCC2)cc1 [Entry 39, N-cyclopentyl-N-(2-{5-[4-(methyloxy)phenyl]-3-pyridin-4-yl-1H-1,2,4-triazol-1-yl}ethyl)-2-naphthalen-1-ylacetamide] | < 50 |
| COc1ccc(-c2nc(-c3ccncc3)n(CCN(C(=O)Cc3cccc4ccccc34)C3CCCC3)n2)cc1 [Entry 40, N-cyclopentyl-N-(2-{3-[4-(methyloxy)phenyl]-5-pyridin-4-yl-1H-1,2,4-triazol-1-yl}ethyl)-2-naphthalen-1-ylacetamide] | 1000 to 10000 |
| COc1ccc(-c2nc(-c3ccncc3)nn2CCN(C(=O)Cc2cccc3ccccc23)C2CCCC2)cc1OC [Entry 41, N-(2-{5-[3,4-bis(methyloxy)phenyl]-3-pyridin-4-yl-1H-1,2,4-triazol-1-yl}ethyl)-N-cyclopentyl-2-naphthalen-1-ylacetamide] | < 50 |
| COc1ccc(-c2nc(-c3ccncc3)n(CCN(C(=O)Cc3cccc4ccccc34)C3CCCC3)n2)cc1OC [Entry 42, N-(2-{3-[3,4-bis(methyloxy)phenyl]-5-pyridin-4-yl-1H-1,2,4-triazol-1-yl}ethyl)-N-cyclopentyl-2-naphthalen-1-ylacetamide] | 50 to 1000 |
| O=C(Cc1cccc2ccccc12)N(CCn1nc(-c2ccncc2)nc1-c1cccc(C(F)(F)F)c1)C1CCCC1 [Entry 45, N-cyclopentyl-2-naphthalen-1-yl-N-(2-{3-pyridin-4-yl-5-[3-(trifluoromethyl)phenyl]-1H-1,2,4-triazol-1-yl}ethyl)acetamide] | < 50 |
| O=C(Cc1cccc2ccccc12)N(CCn1nc(-c2cccc(C(F)(F)F)c2)nc1-c1ccncc1)C1CCCC1 [Entry 46, N-cyclopentyl-2-naphthalen-1-yl-N-(2-{5-pyridin-4-yl-3-[3-(trifluoromethyl)phenyl]-1H-1,2,4-triazol-1-yl}ethyl)acetamide] | ≥ 10000 |
| COc1ccc(-c2nc(-c3ccncc3)nn2CCN(C(=O)Cc2ccc3ccccc3c2)C2CCCC2)cc1Cl [Entry 48, N-(2-{5-[3-chloro-4-(methyloxy)phenyl]-3-pyridin-4-yl-1H-1,2,4-triazol-1-yl}ethyl)-N-cyclopentyl-2-naphthalen-2-ylacetamide] | ≥ 10000 |
| O=C(Cc1cccc2ccccc12)N(CCc1n[nH]c(-c2ccncc2)n1)C1CCCC1 [Entry 49, N-cyclopentyl-2-naphthalen-1-yl-N-[2-(5-pyridin-4-yl-1H-1,2,4-triazol-3-yl)ethyl]acetamide] | < 50 |
| COc1ccc(-c2nc(-c3ccnc(Cl)c3)nn2CCN(C(=O)Cc2cccc3ccccc23)C2CCCC2)cc1Cl [Entry 53, N-{2-[5-[3-chloro-4-(methyloxy)phenyl]-3-(2-chloropyridin-4-yl)-1H-1,2,4-triazol-1-yl]ethyl}-N-cyclopentyl-2-naphthalen-1-ylacetamide] | ≥ 10000 |
| COc1ccc(-c2nc(-c3ccncc3)[nH]c2CCN(C(=O)Cc2cccc3ccccc23)C2CCCC2)cc1 [Entry 54, N-cyclopentyl-N-(2-{4-[4-(methyloxy)phenyl]-2-pyridin-4-yl-1H-imidazol-5-yl}ethyl)-2-naphthalen-1-ylacetamide] | 50 to 1000 |
| COc1ccc(-c2nc(-c3ccncc3)n(CCN(C(=O)Nc3cccc4ccccc34)C3CCCC3)n2)cc1Cl [Entry 55, N-(2-{3-[3-chloro-4-(methyloxy)phenyl]-5-pyridin-4-yl-1H-1,2,4-triazol-1-yl}ethyl)-N-cyclopentyl-N′-naphthalen-1-ylurea] | ≥ 10000 |
| O=C(Cc1cccc2ccccc12)N(CCn1nc(-c2cccc(F)c2)nc1-c1ccncc1)C1CCCC1 [Entry 57, N-cyclopentyl-N-{2-[3-(3-fluorophenyl)-5-pyridin-4-yl-1H-1,2,4-triazol-1-yl]ethyl}-2-naphthalen-1-ylacetamide] | 1000 to 10000 |
| O=C(Cc1cccc2ccccc12)N(CCn1nc(-c2cccc(Cl)c2)nc1-c1ccncc1)C1CCCC1 [Entry 59, N-{2-[3-(3-chlorophenyl)-5-pyridin-4-yl-1H-1,2,4-triazol-1-yl]ethyl}-N-cyclopentyl-2-naphthalen-1-ylacetamide] | 1000 to 10000 |
| O=C(Cc1cccc2ccccc12)N(CCn1nc(-c2ccccc2Cl)nc1-c1ccncc1)C1CCCC1 [Entry 62, N-{2-[3-(2-chlorophenyl)-5-pyridin-4-yl-1H-1,2,4-triazol-1-yl]ethyl}-N-cyclopentyl-2-naphthalen-1-ylacetamide] | 1000 to 10000 |

Now from value to compound:

| IC50 [nM] | SMILES |
| --- | --- |
| < 50 | Cc1nc(-c2ccncc2)nn1CCN(C(=O)Cc1cccc2ccccc12)C1CCCC1 [Entry 43, N-cyclopentyl-N-[2-(5-methyl-3-pyridin-4-yl-1H-1,2,4,-triazol-1-yl)ethyl]-2-naphthalen-1-ylacetamide] |
| < 50 | O=C(Cc1cccc2ccccc12)N(CCn1cnc(-c2ccncc2)n1)C1CCCC1 [Entry 44, N-cyclopentyl-2-naphthalen-1-yl-N-[2-(3-pyridin-4-yl-1H-1,2,4-triazol-1-yl)ethyl]acetamide] |
| < 50 | O=C(Cc1cccc2ccccc12)N(CCn1nc(-c2ccncc2)nc1-c1cc(Cl)cc(Cl)c1)C1CCCC1 [Entry 47, N-cyclopentyl-N-{2-[5-(3,5-dichlorophenyl)-3-pyridin-4-yl-1H-1,2,4-triazol-1-yl]ethyl}-2-naphthalen-1-ylacetamide] |
| < 50 | O=C(Cc1cccc2ccccc12)N(CCn1nc(-c2ccncc2)nc1-c1ccccc1)C1CCCC1 [Entry 50, N-cyclopentyl-2-naphthalen-1-yl-N-[2-(5-phenyl-3-pyridin-4-yl-1H-1,2,4-triazol-1-yl)ethyl]acetamide] |
| 1000 to 10000 | O=C(Cc1cccc2ccccc12)N(CCn1nc(-c2ccccc2)nc1-c1ccncc1)C1CCCC1 [Entry 51, N-cyclopentyl-2-naphthalen-1-yl-N-[2-(3-phenyl-5-pyridin-4-yl-1H-1,2,4-triazol-1-yl)ethyl]acetamide] |
| 50 to 1000 | O=C(Cc1cccc2ccccc12)N(CCc1nc(-c2ccncc2)no1)C1CCCC1 [Entry 52, N-cyclopentyl-2-naphthalen-1-yl-N-[2-(3-pyridin-4-yl-1,2,4-oxadiazol-5-yl)ethyl]acetamide] |
| < 50 | O=C(Cc1cccc2ccccc12)N(CCn1nc(-c2ccncc2)nc1-c1cccc(F)c1)C1CCCC1 [Entry 56, N-cyclopentyl-N-{2-[5-(3-fluorophenyl)-3-pyridin-4-yl-1H-1,2,4-triazol-1-yl]ethyl}-2-naphthalen-1-ylacetamide] |
| < 50 | O=C(Cc1cccc2ccccc12)N(CCn1nc(-c2ccncc2)nc1-c1cccc(Cl)c1)C1CCCC1 [Entry 58, N-{2-[5-(3-chlorophenyl)-3-pyridin-4-yl-1H-1,2,4-triazol-1-yl]ethyl}-N-cyclopentyl-2-naphthalen-1-ylacetamide] |
| < 50 | O=C(Cc1cccc2ccccc12)N(CCn1nc(-c2ccncc2)nc1C1CCNCC1)C1CCCC1 [Entry 60, N-cyclopentyl-2-naphthalen-1-yl-N-[2-(5-piperidin-4-yl-3-pyridin-4-yl-1H-1,2,4-triazol-1-yl)ethyl]acetamide] |
| < 50 | O=C(Cc1cccc2ccccc12)N(CCn1nc(-c2ccncc2)nc1-c1ccccc1Cl)C1CCCC1 [Entry 61, N-{2-[5-(2-chlorophenyl)-3-pyridin-4-yl-1H-1,2,4-triazol-1-yl]ethyl}-N-cyclopentyl-2-naphthalen-1-ylacetamide] |
